Test system: CAGA12 reporter (SMAD3 dependent) in SW1353 chondrocytic cells
Assay: CAGA12 firefly luciferase reporter assay
Type: cell-based
Details: 8 h peptide exposure, firefly normalized to Gaussia luciferase, relative to control (Figure 5B)
Experimental: Figure 5 Molecular characterization of peptides p[63−82] and p[113−132] (A) A pool of OA-HACs (n = 4 donors) was transfected with a scrambled siRNA or with an NKX3-2 siRNA (100 nM siRNA) and cultured for 24 h. Cultures were then exposed to peptide p[63−82] or p[113−132] (100 nM peptide). Samples were harvested 24 h later and analyzed for the expression of the indicated mRNAs (normalized to 28S rRNA). (B) SW1353 chondrocytic cells were transfected with BRE (SMAD1/5/8 reporter) or CAGA12 (SMAD2/3 reporter) firefly luciferase-reporter plasmids. A CMV-Gaussia plasmid was cotransfected as a transfection control. Cells were then cultured for 24 h and subsequently exposed to control, p[63−82], or p[113−132] for 8 h. Firefly and Gaussia bioluminescence were measured in cells and medium (respectively), and relative light units (RLUs) of firefly luciferase were normalized for the Gaussia luciferase signal. The normalized firefly luciferase signal of the control condition was set at 1, and peptide conditions were calculated relative to the control condition (FL/GL). Error bars represent mean ± SEM; statistical significance for peptide conditions versus siScrambled or siNKX3-2 (A) or control condition (B) as determined by unpaired two-tailed Student’s t test is represented as ∗p < 0.05, ∗∗p < 0.01, and ∗∗∗p < 0.001. […]

Which CAGA12-reporter activity does the source give for H-AAYYSEGESAFPLNSYMNAT-OH [p[63−82]] here?
The CAGA12-reporter activity was “diminished”.

How did the CAGA12-reporter activity turn out when H-SVLYFDDSSNVILKKYRNMV-OH [p[113−132]] was run?
The CAGA12-reporter activity was “diminished”.
